The target in one experiment is T1, Rat M1 mAChR (Rattus norvegicus, UniProt P08482).
T1 construct: host or cells: CHO (CHO-K1) cells
T1 sequence (P08482 1-460): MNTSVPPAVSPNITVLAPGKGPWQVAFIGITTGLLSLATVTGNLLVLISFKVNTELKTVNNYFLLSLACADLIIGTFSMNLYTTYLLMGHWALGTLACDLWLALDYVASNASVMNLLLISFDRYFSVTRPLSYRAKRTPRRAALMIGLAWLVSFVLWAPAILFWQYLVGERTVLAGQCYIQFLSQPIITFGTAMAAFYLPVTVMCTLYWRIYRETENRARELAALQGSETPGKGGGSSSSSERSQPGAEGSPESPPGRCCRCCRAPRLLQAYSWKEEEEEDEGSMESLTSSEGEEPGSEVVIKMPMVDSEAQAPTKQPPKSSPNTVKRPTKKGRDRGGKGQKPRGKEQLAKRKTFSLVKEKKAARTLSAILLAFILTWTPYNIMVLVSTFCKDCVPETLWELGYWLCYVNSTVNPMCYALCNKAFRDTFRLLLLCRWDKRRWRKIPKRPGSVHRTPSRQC
Nature of the experiment: calcium mobilization assay in CHO cells. In kind it is cell-based. How it is done:
(§1) CHO cells expressing rM1, rM3 and rM5 were plated at 4 × 10^4 cells per well, whereas rM2 and rM4 were plated at 6 × 10^4 cells per well, in standard growth media (as described previously under “cell culture”) in 96-well plates 24 hours before assay and were incubated overnight at 37 °C in 5% CO2. […] Cells were incubated for 45 minutes (37 °C, 5% CO2) for dye loading. Fluo4-AM dye was removed, cells were washed and replaced with 40 μL of calcium assay buffer. AEME concentration-response curves were determined in single-add experiments. […] All compounds were dissolved in dimethyl sulfoxide (DMSO) and then in calcium assay buffer to obtain a final DMSO concentration of 0.3%. […] These values were fit using GraphPad Prism version 5.0 to determine EC50 values and Schild slope and pA2 in the Schild analyses.

A further experiment deals with T2, Rat M3 mAChR (Rattus norvegicus, UniProt P08483).
T2 construct: host or cells: CHO (CHO-K1) cells
Nature of the experiment: calcium mobilization assay in CHO cells. In kind it is cell-based. How it is done:
as §1

T2 sequence (P08483 whole entry): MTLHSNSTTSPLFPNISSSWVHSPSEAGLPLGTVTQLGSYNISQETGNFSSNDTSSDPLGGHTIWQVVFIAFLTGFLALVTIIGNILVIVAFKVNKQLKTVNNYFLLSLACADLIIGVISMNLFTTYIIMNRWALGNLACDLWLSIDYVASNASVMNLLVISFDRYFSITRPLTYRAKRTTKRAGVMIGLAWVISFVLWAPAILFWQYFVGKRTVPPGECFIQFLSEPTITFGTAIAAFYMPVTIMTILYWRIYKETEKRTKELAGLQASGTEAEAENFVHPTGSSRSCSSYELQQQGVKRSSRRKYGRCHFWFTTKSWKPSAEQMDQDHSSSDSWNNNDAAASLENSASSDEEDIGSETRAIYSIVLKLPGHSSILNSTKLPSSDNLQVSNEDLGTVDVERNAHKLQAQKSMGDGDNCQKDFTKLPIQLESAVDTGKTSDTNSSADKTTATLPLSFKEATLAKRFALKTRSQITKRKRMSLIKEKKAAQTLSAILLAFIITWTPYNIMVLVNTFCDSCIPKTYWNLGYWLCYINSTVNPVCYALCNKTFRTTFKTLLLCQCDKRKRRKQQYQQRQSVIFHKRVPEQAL

Turning to `COC(=O)C1=CC[C@@H]2CC[C@H]1N2C` [AEME, anhydroecgonine methyl ester], the mechanism of action result at Rat M1 mAChR (rat M1) and on Rat M3 mAChR (rat M3) was “partial agonist-activity” in each case. Moreover, the “% of the maximum acetylcholine response” value is reported as 38.3% on Rat M1 mAChR (rat M1, agonist mode) and 27.2% at Rat M3 mAChR (rat M3, agonist mode). The EC50 on Rat M1 mAChR (rat M1, agonist mode (single-add)) is above 100 µM; at Rat M3 mAChR (rat M3, agonist mode (single-add)), above 100 µM.

For the origin of these results see article PMC4667193 (Scientific Reports, 2015).
